# Results published in patent publication US6441193B1, “Estrogen agonists/antagonists” (Pfizer Inc., priority 1995, dated 2002).
# What was measured:
# prostate = assay: Effect on prostate weight (wet prostate weight after 14 days of daily subcutaneous injection); type: in vivo, rat; settings: male Sprague-Dawley rats, s.c. daily for 14 days
# Method: Male Sprague-Dawley rats, three months of age are administered by subcutaneous injection either vehicle (10% ethanol in water), estradiol (30 μg/kg), testosterone (1 mg/kg) or a compound of formula I daily for 14 days (n=6/group). After 14 days the animals are sacrificed, the prostate is removed and the wet prostate weight is determined. Mean weight is determined and statistical significance (p<0.05) is determined compared to the vehicle-treated group using Student's t-test.
# ventral prostate = settings: male rats; cited from earlier work
smiles,measurement,setting,value
"C[C@]12CC[C@H]3[C@@H](CCC4=CC(=O)CC[C@@]43C)[C@@H]1CC[C@@H]2O [Testosterone, testosterone]",wet prostate weight compared to vehicle,prostate; testosterone 1 mg/kg,no effect
"C[C@]12CC[C@@H]3c4ccc(O)cc4CC[C@H]3[C@@H]1CC[C@@H]2O [estrogen, estradiol]",wet prostate weight compared to vehicle,prostate; 30 μg/kg,significantly reduces prostate weight
"O=C(c1ccc(OCCN2CCCCC2)cc1)c1c(-c2ccc(O)cc2)sc2cc(O)ccc12 [raloxifene, 6-hydroxy-2-(4-hydroxyphenyl)-3-[4-(2-piperidinoethoxy)benzoyl] benzo[b] thiophene]",effect on ventral prostate,ventral prostate,regression of the ventral prostate
